Read-outs that look alike come from different tables or passages of the source.
Key:
PLA2G16 = target: T1, PLA2G16 (Homo sapiens, UniProt P53816); assay: Enzyme activity assay for PLA2G16 (Red/Green BODIPY PC-A2 fluorescence); assay type: biochemical; conditions: His-tagged PLA2G16, 4 min pre-incubation, 2 nM to 50 μM; read-out: IC50 values of the compounds determined in the enzyme activity assay for PLA2G16
T1 construct: Hexa-His (N); made in house; host or cells: E. coli BL21(DE3)
T1 sequence (P53816 1-162): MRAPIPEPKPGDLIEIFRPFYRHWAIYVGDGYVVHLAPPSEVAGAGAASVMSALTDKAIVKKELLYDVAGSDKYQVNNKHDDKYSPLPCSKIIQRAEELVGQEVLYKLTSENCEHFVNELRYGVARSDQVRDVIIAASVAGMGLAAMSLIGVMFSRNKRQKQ
Description: A cDNA for PLA2G16(NM_007069) was custom-synthesized by Genscript (Piscataway, USA) and inserted into a pET-based bacterial expression vector [Moffatt, B. A. and Studier, F. W. (1986) J. Mol. Biol. 189, 113-130; Rosenberg, A. H., Lade, B. N., Chui, D., Lin, S., Dunn, J. J., and Studier, F. W. (1987) Gene 56, 125-135], enabling the expression of N-terminally Hexa-His-tagged PLA2G16. E. coli BL21(DE3) (Agilent) were transformed with pET-His-PLA2G16according to the manufacturer's instructions and plated on Carbenicillin-containing agar plates (final concentration: 100 μg/mL). A single clone was in occulated in 100 mL LB medium supplemented with 100 μg/mL Carbenicillin and the in occulated culture was grown at 37° C. overnight in a rotary shaker. On the next day, the bacterial culture was diluted in LB medium supplemented with 100 μg/mL Carbenicillin (30 mL overnight culture in 800 mL total culture volume). Bacteria were grown at 37° C. until the OD600 reached 0.6. Gene expression was induced by addition of 1 mM isopropyl-β-D-thiogalactopyranosid (IPTG) for 2 h at 18° C. Subsequently, bacteria were harvested by centrifugation (15 min; 10,000×g; 4° C.) and frozen at −80° C. The bacterial pellet was resuspended in Buffer A (50 mM Tris/HCl pH 7.5, 500 mM NaCl, 5% glycerol, 5 mM β-Mercaptoethanol and 1 mM PMSF) and lysed by addition of 1 mg/mL lysozyme (Sigma Aldrich) and 100 μg/mL DNasel-(Roche). The sample was incubated at 30° C. for 30 min to allow lysis to occur. Then, the lysate was cleared by centrifugation (15,000×g, 15 min, 4° C.) and incubated with 1.5 mL Ni-NTA agarose suspension (Qiagen) for 60 min at 4° C. The Ni-NTA agarose was washed with 10 mL Buffer A. Bound protein was eluted by applying a manual gradient of Buffer A supplemented with increasing concentrations of imidazole (Sigma Aldrich; 25/50/75/100/250 mM). Purified fractions were analyzed by SDS-PAGE followed by Coomassie staining to assess the purity.
Activity of the protein was assessed as follows: Red/Green BODIPY® PC-A2 (Invitrogen, 1 mM in DMSO) was mixed with equal volumes of 1,2-Dioleoyl-sn-glycero-3-phosphocholine (DOPC; Sigma Aldrich, 10 mM in Ethanol) and 1,2-Dioleoyl-sn-glycero-3-phospho-rac-(1-glycerol) (DOPG; Sigma Aldrich, 10 mM in Ethanol) and 0.5 volumes of Cholesterol (CHOL; Sigma Aldrich, 10 mM in Ethanol) and vortexed for 5 s. The mixture (Red/Green BODIPY® PC-A2/DOPC/DOPG/CHOL) was diluted 1:91.4 in activity assay buffer (50 mM Tris/HCl pH 8.5, 100 mM NaCl) using a small-orifice pipette tip under constant vortexing. In the following, this preparation will be referred to as the “substrate solution”.
In order to evaluate their inhibitory potential, compounds were dissolved at 10 mM concentration in DMSO and directly spotted into assay plates (Corning, Cat. No. 3576) using acoustic liquid transfer (Labcyte Echo 525). Each compound was spotted at increasing concentrations, ranging from 2 nM to 50 μM (concentration in the final assay volume). 50 μl of PLA2G16 enzyme solution (diluted in activity buffer, supplemented with 5 mM L-Glutathione; Sigma Aldrich) was pre-incubated with compounds for 4 min., followed by addition of 50 μl of substrate solution. Fluorescence was recorded immediately after substrate addition for a total time of 10 min. using a SpectraMax M5 multimode reader (Excitation wavelength: 480 nm, emission wavelength: 530 nm). The relative increase of fluorescence over time is referred to as the enzyme activity. Half-maximal inhibitory concentrations (IC50) were derived by non-linear regression analysis using the drc package in R (R Development. Core Team, 2005).

[1] = system: picornaviruses (CVB1, HRV-A2, HRV-A23, EV-68); assay: Anti-picornavirus cytopathic effect (CPE) reduction assay on HeLa H1 cells; assay type: cell-based; conditions: Enterovirus B
Procedure: The antiviral activity of selected compounds was tested using a cytopathic effect (CPE) reduction assay on HeLa H1 cells (ATCC CRL-1958). Briefly, cells were seeded in 96-well dishes (2×10^4 cells/well) in DMEM medium (Life technologies) supplemented with 10% FBS and PenStrep solution (100 U/mL Penicillin and 100 μg/mL streptomycin) and incubated at 37° C., 5% CO2 ovemight. The next day, cells were pre-treated with serial dilutions of the compound in DMEM medium supplemented with 2% FBS and PenStrep for 2 h at 37° C., 5% CO2. Next, cells were infected with virus (CVB1, HRV-A2, HRV-A23, EV-68) at an multiplicity of infection (MOI) which results in a complete virus-induced CPE within 2 days in control wells (infected and vehicle-treated). After 48 h, supematants were aspirated and 50 μl/well of CellTiterBlue reagent (Promega) diluted 1:5 in DMEM+2% FBS, was added to the cells. Plates were returned to the incubator and allowed to develop for 1.5 h. After that, plates were equilibrated to RT and subsequently, fluorescence was recorded (Excitation wavelength: 560 nm; emission wavelength: 590 nm) using a SpectraMax M5 multimode plate reader. Viability of cells was calculated according to the formula: V=(RFUCpd−RFUVeh/(RFUM−RFUVeh), where RFUCpd refers to infected and compound-treated cells, RFUVeh to infected and vehicle-treated cells and RFUM to uninfected and vehicle treated cells. Half-maximal effective concentrations (EC50) were calculated by non-linear regression analysis using the drc package in R (R Development. Core Team, 2005). EC50 categories as presented in Table 2 were calculated by averaging the EC50 values from four picornaviruses (CVB1, HRV-A2, HRV-A23, EV68).

[2] = HeLa H1, 48 h, HeLa H1 cells, 48 h, category from averaging the EC50 values from four picornaviruses (CVB1, HRV-A2, HRV-A23, EV68), read-out: EC50 values of the compounds determined in the anti-picornavirus assay
[3] = HeLa H1, 48 h, read-out: EC50 values of the compounds determined in the anti-picornavirus assay, HeLa H1 cells, 48 h, category from averaging the EC50 values from four picornaviruses (CVB1, HRV-A2, HRV-A23, EV68)

Question: With CC(=O)NCCCCCCNC(=O)C(=O)C1CCC(=O)N1Cc1ccc(Cl)cc1 (stereo not shown) [FP 330, 2-{1-[(4-Chlorophenyl)methyl]-5-oxopyrrolidin-2-yl}-N-(6-acetamidohexyl)-2-oxoacetamide] as the compound, how does the IC50 (PLA2G16) read?
Answer: < 1000 nM

Question: What about the EC50 [1, 2] of the same compound?
Answer: 1000 to 10000 nM

Question: What does the source list for O=C(NCC1CC1)C(=O)[C@H]1CCC(=O)N1Cc1ccccc1 [FP 224, 2-[(2R)-1-Benzyl-5-oxopyrrolidin-2-yl]-N-(cyclopropylmethyl)-2-oxoacetamide]?
Answer: IC50 (PLA2G16): < 1000 nM; EC50 [1, 2]: < 1000 nM

Question: With O=C(NCCN1CCCCC1=O)C(=O)[C@H]1CCC(=O)N1Cc1ccccc1 [FP 292, 2-[(2R)-1-Benzyl-5-oxopyrrolidin-2-yl]-2-oxo-N-[2-(2-oxopiperidin-1-yl)ethyl]acetamide] as the compound, how does the IC50 (PLA2G16) read?
Answer: < 1000 nM

Question: What about the EC50 [1, 2] of the same compound?
Answer: 1000 to 10000 nM

Question: C[C@@H]1C[C@H]1NC(=O)C(=O)[C@H]1CCC(=O)N1Cc1ccccc1 [FP 271, 2-[(2R)-1-Benzyl-5-oxopyrrolidin-2-yl]-N-[(1R,2R)-2-methylcyclopropyl]-2-oxoacetamide] was tested. Which IC50 (PLA2G16) did it give?
Answer: < 1000 nM

Question: What about the EC50 [1, 2] of the same compound?
Answer: < 1000 nM

Question: With CCCNC(=O)C(=O)[C@H]1CCC(=O)N1Cc1ccccc1 [FP 288, 2-[(2R)-1-Benzyl-5-oxopyrrolidin-2-yl]-2-oxo-N-propylacetamide] as the compound, how does the IC50 (PLA2G16) read?
Answer: < 1000 nM

Question: And the EC50 [1, 2]?
Answer: < 1000 nM

Question: How did the IC50 (PLA2G16) turn out when CC(NC(=O)c1ccccc1)C(=O)C(=O)NCC1CCCC1 (stereo not shown) [FP 180, N-(Cyclopentylmethyl)-2-oxo-3-(phenylformamido)butanamide] was run?
Answer: < 1000 nM

Question: What about the EC50 [1, 2] of the same compound?
Answer: 1000 to 10000 nM

Question: CC(C(=O)C(=O)NCc1cccc(Cl)c1)N(C=O)CC1CCCCC1 (stereo not shown) [FP 18, N-[(3-Chlorophenyl)methyl]-3-[N-(cyclohexylmethyl)formamido]-2-oxobutanamide] was tested. Which IC50 (PLA2G16) did it give?
Answer: < 1000 nM

Question: And the EC50 [1, 2]?
Answer: < 1000 nM

Question: For CNC(=O)C(=O)C(CC(C)C)N(C=O)Cc1ccccc1 (stereo not shown) [FP 195, 3-(N-Benzylformamido)-N,5-dimethyl-2-oxohexanamide], which IC50 (PLA2G16) is on record?
Answer: < 1000 nM

Question: What about the EC50 [1, 2] of the same compound?
Answer: 1000 to 10000 nM

Question: Which IC50 (PLA2G16) does the source give for O=C(NCc1ccccn1)C(=O)C1CCC(=O)N1Cc1ccccc1 (stereo not shown) [FP 230, 2-(1-Benzyl-5-oxopyrrolidin-2-yl)-2-oxo-N-[(pyridin-2-yl)methyl]acetamide] here?
Answer: < 1000 nM

Question: And the EC50 [1, 2]?
Answer: > 10000 nM

Question: Cc1ccc(C(=O)NC(C)C(=O)C(=O)NCC2CC2)cc1 (stereo not shown) [FP 159, N-(Cyclopropylmethyl)-3-[(4-methylphenyl)formamido]-2-oxobutanamide] was tested. Which IC50 (PLA2G16) did it give?
Answer: < 1000 nM

Question: What about the EC50 [1, 2] of the same compound?
Answer: > 10000 nM

Question: How did the IC50 (PLA2G16) turn out when CC(C(=O)C(=O)NCC1CC1)N(C=O)CC1CCN(C(=O)c2ccccc2)CC1 (stereo not shown) [FP 80, 3-{N[(1-Benzoylpiperidin-4-yl)methyl]formamido}-N-(cyclopropylmethyl)-2-oxobutanamide] was run?
Answer: 1000 to 10000 nM

Question: What about the EC50 [1, 2] of the same compound?
Answer: > 10000 nM

Question: How did the IC50 (PLA2G16) turn out when CC(C(=O)C(=O)NCC1CC1)N(C=O)C1CCCCC1 (stereo not shown) [FP 40, 3-(N-Cyclohexylformamido)-N-(cyclopropylmethyl)-2-oxobutanamide] was run?
Answer: < 1000 nM

Question: What about the EC50 [1, 2] of the same compound?
Answer: < 1000 nM

Question: How did the IC50 (PLA2G16) turn out when CCC(NC(=O)c1cnccc1C)C(=O)C(=O)NCC1CCCCC1 (stereo not shown) [FP 211, N-(Cyclohexylmethyl)-3-[(4-methylpyridin-3-yl)formamido]-2-oxopentanamide] was run?
Answer: < 1000 nM

Question: And the EC50 [1, 2]?
Answer: 1000 to 10000 nM

Question: COc1ccccc1CNC(=O)C(=O)C(C)N(C=O)c1ccccc1OC (stereo not shown) [FP 95, 3-[N-(2-Methoxyphenyl)formamido]-N-[(2-methoxyphenyl)methyl]-2-oxobutanamide] was tested. Which IC50 (PLA2G16) did it give?
Answer: < 1000 nM

Question: And the EC50 [1, 2]?
Answer: 1000 to 10000 nM

Question: Which IC50 (PLA2G16) does the source give for O=C(NC1CC1)C(=O)[C@H]1CCC(=O)N1Cc1ccccc1 here?
Answer: < 1000 nM

Question: What about the EC50 ([1]; CVB1|EV68|HRVA2|HRVA23, HeLa H1, 48 h, HeLa H1 cells, 48 h, category from averaging the EC50 values from four picornaviruses (CVB1, HRV-A2, HRV-A23, EV68), read-out: EC50 values of the compounds determined in the anti-picornavirus assay) of the same compound?
Answer: < 1000 nM

Question: How did the IC50 (PLA2G16) turn out when O=C(NCCc1cnccn1)C(=O)C1CCC(=O)N1Cc1ccccc1 (stereo not shown) [FP 227, 2-(1-Benzyl-5-oxopyrrolidin-2-yl)-2-oxo-N-[2-(pyrazin-2-yl)ethyl]acetamide] was run?
Answer: < 1000 nM

Question: And the EC50 [1, 2]?
Answer: 1000 to 10000 nM

Question: O=C(NCC1CCCCC1)C(=O)C1CCC(=O)N1CC1CCOCC1 (stereo not shown) [FP 248, N-(Cyclohexylmethyl)-2-{1-[(oxan-4-yl)methyl]-5-oxopyrrolidin-2-yl}-2-oxoacetamide] was tested. Which IC50 (PLA2G16) did it give?
Answer: < 1000 nM

Question: And the EC50 [1, 2]?
Answer: < 1000 nM

Question: For O=C(NCC1CC1)C(=O)[C@@H]1CCC(=O)N1Cc1ccccc1 [FP 225, 2-[(2S)-1-Benzyl-5-oxopyrrolidin-2-yl]-N-(cyclopropylmethyl)-2-oxoacetamide], which EC50 [1, 3] is on record?
Answer: > 10000 nM

Question: CC(OCC1CCCCC1)C(=O)C(=O)NCC1CC1 (stereo not shown) [FP 123, 3-(Cyclohexylmethoxy)-N-(cyclopropylmethyl)-2-oxobutanamide] was tested. Which EC50 [1, 3] did it give?
Answer: 1000 to 10000 nM

Question: Which IC50 (PLA2G16) does the source give for COc1cccc(CNC(=O)C(=O)C(C)N(C=O)c2ccccc2OC)c1 (stereo not shown) [FP 85, 3-[N-(2-Methoxyphenyl)formamido]-N-[(3-methoxyphenyl)methyl]-2-oxobutanamide] here?
Answer: < 1000 nM

Question: Which IC50 (PLA2G16) does the source give for COc1ccc(N(C=O)C(C)C(=O)C(=O)NCc2cccc(Cl)c2)cc1 (stereo not shown) [FP 5, N-[(3-Chlorophenyl)methyl]-3-[N-(4-methoxyphenyl)formamido]-2-oxobutanamide] here?
Answer: < 1000 nM

Question: With COc1ccccc1NC(=O)C(=O)[C@H](C)N(C=O)c1ccccc1OC [FP 82, (3S)—N-(2-Methoxyphenyl)-3-[N-(2-methoxyphenyl)formamido]-2-oxobutanamide] as the compound, how does the IC50 (PLA2G16) read?
Answer: 1000 to 10000 nM

Question: With COc1ccccc1N(C=O)C(C)C(=O)C(N)=O (stereo not shown) [FP 14, 3-[N-(2-Methoxyphenyl)formamido]-2-oxobutanamide] as the compound, how does the IC50 (PLA2G16) read?
Answer: 1000 to 10000 nM
